Tests used:
[1] = molecular target: T1, Serotonin 3 (5-HT3) receptor (Rattus norvegicus, UniProt P35563+Q9JJ16); experiment: Binding affinity was measured on 5-hydroxytryptamine 3 receptor in NG-108 cells labeled with [3H]GR-65630; format: cell-based
T1 sequence (P35563 whole entry): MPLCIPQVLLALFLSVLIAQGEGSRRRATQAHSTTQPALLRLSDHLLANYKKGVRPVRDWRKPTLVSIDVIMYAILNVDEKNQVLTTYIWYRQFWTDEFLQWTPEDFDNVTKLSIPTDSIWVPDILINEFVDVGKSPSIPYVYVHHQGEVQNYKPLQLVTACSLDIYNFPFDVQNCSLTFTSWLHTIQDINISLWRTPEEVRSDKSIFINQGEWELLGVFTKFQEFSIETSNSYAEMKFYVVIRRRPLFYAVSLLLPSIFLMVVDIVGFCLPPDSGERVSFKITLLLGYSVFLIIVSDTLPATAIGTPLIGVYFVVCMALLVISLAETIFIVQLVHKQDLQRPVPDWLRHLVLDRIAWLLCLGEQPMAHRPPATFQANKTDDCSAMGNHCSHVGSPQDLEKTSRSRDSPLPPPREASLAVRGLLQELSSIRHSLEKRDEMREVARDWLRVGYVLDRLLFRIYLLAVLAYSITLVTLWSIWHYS
T1 sequence (Q9JJ16 whole entry): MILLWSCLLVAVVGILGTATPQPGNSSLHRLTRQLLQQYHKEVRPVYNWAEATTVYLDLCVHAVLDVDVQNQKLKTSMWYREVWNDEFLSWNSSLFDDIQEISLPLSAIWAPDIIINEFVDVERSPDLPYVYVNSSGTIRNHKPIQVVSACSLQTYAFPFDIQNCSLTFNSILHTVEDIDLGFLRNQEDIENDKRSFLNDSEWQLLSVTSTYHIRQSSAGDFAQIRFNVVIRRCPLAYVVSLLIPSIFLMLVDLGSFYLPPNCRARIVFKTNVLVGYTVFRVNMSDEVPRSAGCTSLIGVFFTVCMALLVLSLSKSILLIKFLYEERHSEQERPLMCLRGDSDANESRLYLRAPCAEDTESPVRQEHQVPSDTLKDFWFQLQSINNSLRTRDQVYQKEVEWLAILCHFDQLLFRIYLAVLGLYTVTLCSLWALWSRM

[2] = molecular target: T2, 5-hydroxytryptamine receptor 1D (Homo sapiens, UniProt P28221); experiment: Compound was evaluated for its agonistic activity on 5-hydroxytryptamine 1D receptor; format: functional
[3] = molecular target: T3, 5-hydroxytryptamine receptor 2C (Rattus norvegicus, UniProt P08909); experiment: Binding affinity was measured on 5-hydroxytryptamine 2C receptor in J1 cells transfected with rat 5-HT2C gene labeled with [3H]mesulergine; format: cell-based
T3 sequence (P08909 whole entry): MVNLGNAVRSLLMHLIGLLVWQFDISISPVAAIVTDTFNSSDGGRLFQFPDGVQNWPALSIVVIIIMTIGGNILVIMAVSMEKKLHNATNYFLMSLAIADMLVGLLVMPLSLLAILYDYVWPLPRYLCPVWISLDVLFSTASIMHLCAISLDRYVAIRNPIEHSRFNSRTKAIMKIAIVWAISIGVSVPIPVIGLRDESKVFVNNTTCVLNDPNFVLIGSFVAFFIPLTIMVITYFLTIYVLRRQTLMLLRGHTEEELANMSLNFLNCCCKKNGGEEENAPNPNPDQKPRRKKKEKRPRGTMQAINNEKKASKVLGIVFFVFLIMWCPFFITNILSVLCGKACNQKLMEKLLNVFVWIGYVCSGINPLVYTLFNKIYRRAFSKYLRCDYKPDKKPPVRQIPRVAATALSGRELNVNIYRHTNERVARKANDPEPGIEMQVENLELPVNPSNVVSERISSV

[4] = molecular target: 5-hydroxytryptamine receptor 1B (Rattus norvegicus, UniProt P28564); experiment: Binding affinity was measured on 5-hydroxytryptamine 1B receptor in rat striatum labeled with [3H]5-HT; format: tissue-based
[5] = molecular target: T2, 5-hydroxytryptamine receptor 1D; experiment: Binding affinity was measured on 5-hydroxytryptamine 1D receptor alpha in COS cells transfected with human 5-HT1D alpha gene labeled with [3H]5-HT; format: cell-based
[6] = molecular target: 5-hydroxytryptamine receptor 2A (Homo sapiens, UniProt P28223); experiment: biochemical; format: cell-based, GF6
Sequence of 5-hydroxytryptamine receptor 2A (P28223 whole entry): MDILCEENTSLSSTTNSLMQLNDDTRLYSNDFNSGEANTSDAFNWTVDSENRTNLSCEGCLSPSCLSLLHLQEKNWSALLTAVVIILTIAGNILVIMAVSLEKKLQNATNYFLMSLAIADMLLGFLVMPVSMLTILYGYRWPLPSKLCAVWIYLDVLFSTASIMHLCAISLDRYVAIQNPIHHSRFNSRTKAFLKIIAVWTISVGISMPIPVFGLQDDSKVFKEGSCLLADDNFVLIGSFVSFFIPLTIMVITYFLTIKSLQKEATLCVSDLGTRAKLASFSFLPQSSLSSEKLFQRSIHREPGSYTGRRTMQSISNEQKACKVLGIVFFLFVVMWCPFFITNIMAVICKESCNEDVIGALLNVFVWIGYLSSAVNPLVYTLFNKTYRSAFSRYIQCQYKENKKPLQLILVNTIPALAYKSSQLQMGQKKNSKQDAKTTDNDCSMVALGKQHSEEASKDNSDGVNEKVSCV

T2 sequence (P28221 whole entry): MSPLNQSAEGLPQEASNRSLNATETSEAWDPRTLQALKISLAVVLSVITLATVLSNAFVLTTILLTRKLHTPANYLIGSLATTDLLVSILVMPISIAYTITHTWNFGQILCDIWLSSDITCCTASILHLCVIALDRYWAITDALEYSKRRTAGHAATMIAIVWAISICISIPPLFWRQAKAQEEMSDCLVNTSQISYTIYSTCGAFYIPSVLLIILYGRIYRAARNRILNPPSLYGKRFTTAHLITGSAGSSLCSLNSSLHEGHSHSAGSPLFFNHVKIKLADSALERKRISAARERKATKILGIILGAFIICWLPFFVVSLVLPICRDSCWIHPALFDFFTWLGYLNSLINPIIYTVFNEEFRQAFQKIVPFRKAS
Sequence of 5-hydroxytryptamine receptor 1B (P28564 whole entry): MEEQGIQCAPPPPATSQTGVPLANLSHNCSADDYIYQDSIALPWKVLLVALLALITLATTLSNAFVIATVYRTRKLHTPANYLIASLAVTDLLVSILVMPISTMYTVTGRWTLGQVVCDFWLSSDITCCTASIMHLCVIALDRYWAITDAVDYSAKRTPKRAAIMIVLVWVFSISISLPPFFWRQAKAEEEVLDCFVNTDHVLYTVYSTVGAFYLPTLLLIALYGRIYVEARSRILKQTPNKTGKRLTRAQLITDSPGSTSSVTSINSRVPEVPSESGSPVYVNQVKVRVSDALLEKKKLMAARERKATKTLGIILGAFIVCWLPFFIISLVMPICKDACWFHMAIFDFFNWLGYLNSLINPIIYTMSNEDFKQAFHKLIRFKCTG

`CNS(=O)(=O)Cc1ccc2[nH]cc(CCN(C)C)c2c1` was tested, and the Ki [1] was > 1000 nM, the ED50 [2] was 317 nM and the Ki [3] was > 1000 nM.
Compound `NCCc1c[nH]c2ccc(O)cc12` has an ED50 [2] of 1.2 nM.
For `CCCCCCCCCOc1ccc2[nH]cc(CCN)c2c1`, the Ki [4] was 13 nM, the Ki [1] was > 1000 nM and the ED50 [2] was 68 nM. For the same compound, the Ki [3] was 270 nM, the Ki [5] was 16 nM and the Ki [6] was 260 nM.

— ChEMBL document CHEMBL1127443 (J Med Chem, 1994)
